Data set [1] relates to Rattus norvegicus. Nature of the data set: Reduction of lymphocyte count in rat at 1 mg/kg, po measured at 4 hrs relative to control. It counts as functional. Also noted: scale not given: the % may be the effect or the level left.
A further data set deals with Mus musculus. Nature of the data set: Volume of distribution at steady state in po dosed C57BL/6 mouse at 1 mg/kg, iv using DMSO/1% methylcellulose 1:99 (w/v). More on the design: dose 1 mg/kg, route oral. The following applies: in vivo. It counts as ADME, organism-based.
A short description of data set [2]: Oral bioavailability in C57BL/6 mouse at 3 mg/kg using 1% methylcellulose (w/v). It counts as ADME, organism-based. The following applies: in vivo.
The test system of data set [3] is Rattus norvegicus. Nature of the data set: Reduction of lymphocyte count in rat at 1 mg/kg, po measured at 8 hrs relative to control. It counts as functional. Also noted: scale not given: the % may be the effect or the level left.
The target in data set [4] is Sphingosine 1-phosphate receptor 3 (Homo sapiens, UniProt Q99500). Put plainly: Agonist activity at human S1P3R expressed in RBL membranes assessed as [35S]GTPgammaS binding after 30 mins. It counts as functional, cell membranes. In general terms: Binding of GTPγS marks nucleotide exchange on a G protein.
Data set [5] relates to Rattus norvegicus. Nature of the data set: Reduction of lymphocyte count in rat at 1 mg/kg, po measured at 24 hrs relative to control. Also noted: scale not given: the % may be the effect or the level left. It counts as functional.
Data set [6] in a line: Half life in po dosed C57BL/6 mouse at 1 mg/kg, iv using DMSO/1% methylcellulose 1:99 (w/v). It counts as ADME, organism-based. Also noted: dose 1 mg/kg, route oral. The conditions noted are these: in vivo.
Data set [7] concerns the target Sphingosine 1-phosphate receptor 1 (Homo sapiens, UniProt P21453). Nature of the data set: Agonist activity at human S1P1R expressed in RH7777 membranes assessed as [35S]GTPgammaS binding after 30 mins. It counts as functional, cell membranes.

Data on one molecule can be found in ChEMBL document CHEMBL3352346, “Optimization of sphingosine-1-phosphate-1 receptor agonists: effects of acidic, basic, and zwitterionic chemotypes on pharmacokinetic and pharmacodynamic profiles” (J Med Chem, 2014).

Sequence of Sphingosine 1-phosphate receptor 3 (Q99500 whole entry): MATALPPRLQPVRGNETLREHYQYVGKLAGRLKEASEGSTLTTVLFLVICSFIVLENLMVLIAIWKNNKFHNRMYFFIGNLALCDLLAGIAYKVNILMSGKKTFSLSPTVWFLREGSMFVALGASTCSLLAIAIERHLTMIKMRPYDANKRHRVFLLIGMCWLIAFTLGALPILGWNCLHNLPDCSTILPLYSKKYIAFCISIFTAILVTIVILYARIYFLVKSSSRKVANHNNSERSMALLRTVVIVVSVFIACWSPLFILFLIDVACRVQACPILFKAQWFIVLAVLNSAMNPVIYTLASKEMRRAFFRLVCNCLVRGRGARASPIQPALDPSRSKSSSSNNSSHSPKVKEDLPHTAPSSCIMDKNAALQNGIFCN
Sequence of Sphingosine 1-phosphate receptor 1 (P21453 whole entry): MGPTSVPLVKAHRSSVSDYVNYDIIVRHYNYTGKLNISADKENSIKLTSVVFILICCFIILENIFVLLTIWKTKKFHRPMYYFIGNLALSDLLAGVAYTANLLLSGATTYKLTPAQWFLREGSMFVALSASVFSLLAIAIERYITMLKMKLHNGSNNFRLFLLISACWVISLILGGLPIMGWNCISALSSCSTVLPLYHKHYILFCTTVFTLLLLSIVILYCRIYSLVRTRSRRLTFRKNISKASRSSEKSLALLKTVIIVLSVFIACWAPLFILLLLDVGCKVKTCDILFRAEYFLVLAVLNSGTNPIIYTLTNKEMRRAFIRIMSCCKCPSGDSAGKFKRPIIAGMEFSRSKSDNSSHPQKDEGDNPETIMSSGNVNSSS

One may read the bioavailability as dose-corrected exposure relative to a reference, in per cent. A word on the EC50: it is the concentration that produces a half-maximal response. As a reminder, the half-life is how long it takes for the measured level to halve. Consider `CC(C)Oc1ccc(-c2nc(-c3ccc4c(c3)CCNCC4)no2)cc1C#N`, for which the Activity in the data set on Rattus norvegicus [1] was found to be 75%; in the data set with Rattus norvegicus [3] it was 82%; in the data set with Rattus norvegicus [5] it was 6%. Moreover, the Vdss in the data set with Mus musculus was 9.1 L/kg. Moreover, the bioavailability in data set [2] came out at 63%. The figures for the EC50 in data set [4] and in data set [7] were over 31.6 µM and 25.1 nM, respectively. In addition, the half-life in data set [6] was 414 min.
